Data published in EP0790293A1, “Lubricant” (Asahi Kasei Kogyo Kabushiki Kaisha, priority 1991, dated 1992).

Key:
Format in all cases: physicochemical
[1] = Insulation breakdown voltage, JIS C2101; settings: oil purified with activated carbon
Description: 100 g of activated carbon (Calgon® CPG, manufactured by Calgon Far East, Japan) dried in vacuum at 150 °C for 3 hours was dispersed in 400 g of R-113 to obtain a suspension, and 200 g of the oil [S1] obtained in Example 40 was added thereto, followed by agitation at room temperature overnight. The activated carbon was removed by filtration and, then, the R-113 was dis tilled off, followed by simple distillation of the oil, thereby obtaining 140 g of a colorless, transparent oil. The oil obtained according to the present purification method was analyzed by gas chromatography. […] Further, each of the volume resistivities of the oil at 20 °C before and after purification was measured in substantially the same manner as in Example 45. […] The above results are shown in Table 13, together with the results of Comparative Examples 17 through 20.

[2] = Miscibility test with HFC-32
Description: (§1) First, 0.2 g of the oil [S1] was charged into a glass tube and then, the whole was cooled by liquid nitrogen. The interior of the glass tube was evacuated and, about 1.5 g of HFC-134a was introduced into the glass tube. The glass tube was sealed and placed in a temperature-controlled water bath. When the temperature was equilibriated, in the manner in which the miscibility of the oil [S1] with the fluoroalkane was visually evaluated, a miscibility limit was measured in the temperature range of from room temperature to 90 °C. A lower miscibility limit at temperatures lower than room temperature was likewise measured by cooling with a methanol cooling medium. The results are shown in Table 3 together with the results of Comparative Example 1.
The miscibility of the oil [S2] obtained in Referential Example 2 with HFC-32 (CH2F2) was evaluated in the same manner as in Example 1.

[3] = Evaluation of heat resistance (sealed tube test); settings: 175 °C for 10 days with HFC-134a and steel, copper, aluminum pieces
Description: A glass tube was charged with 0.6 ml of purified oil [S1], HFC-134a and test pieces of steal copper and aluminum, and the glass tube was then sealed to enclose a refrigerant composition therein. The refrigerant composition was heated at 175 °C for 10 days. After the heating, any change of the hue of the refrigerant composition and any change of the surfaces of the metal pieces were examined.
The heat resistances of various compounds of the present invention were evaluated according to the sealed tube test in the same manner as described above. […]

[4] = Miscibility with mineral oil; settings: weight ratio 50/50
[5] = Volume resistivity, JIS C2101 (insulating oil test); settings: 20 °C; for volume resistivity: oil as obtained in the Referential Example
Description: Volume resistivity of the oil [S1] obtained in Referential Example 1 was measured according to the method of JIS C2101 (insulating oil test).

[6] = Kinetic viscosity (E-type rotational viscometer, Cannon-Fenske viscometer)
From the text: The kinetic viscosity of the lubricant oil for use in the present invention can be determined by measuring the viscosity by means of various viscometers. As the viscometer to be used for determining the kinetic viscosity, there can be mentioned a capillary viscometer, such as a Ubbellohde viscometer, an Ostward viscometer or a Cannon-Fenske viscometer, a rotational viscometer, and a falling ball viscometer. In the present invention, an E-type rotational viscometer (manufactured by Tokyo Keiki, Japan) and a Cannon-Fenske viscometer were used.

[7] = Miscibility with polypropylene glycol; settings: weight ratio 50/50; polypropylene glycol number average molecular weight 1000
[8] = Miscibility test with HFC-134a (sealed glass tube, visual evaluation); settings: for Temperature range for being miscible with HFC-134a lower limit temperature (°C) / Temperature range for being miscible with HFC-134a upper limit temperature (°C): 0.2 g oil, about 1.5 g HFC-134a; for Temperature range for being miscible with HFC-134a upper limit temperature (°C): measured up to 90 °C
[9] = Miscibility test with HFC-125
Description: as §1
The miscibility of the oil [S2] obtained in Referential Example 2 with HFC-125 (CF3CHF2) was evaluated in the same manner as in Example 1.

[10] = Miscibility test with HFC-227ea
Description: as §1
The miscibility of the oil [S2] obtained in Referential Example 2 with HFC-227ea (CF3CHFCF3) was evaluated in the same manner as in Example 1.

[11] = Miscibility with ester oil; settings: weight ratio 50/50
[12] = Miscibility with fluoroalkanes in general
From the text: The present inventors have examined the miscibilities of perfluoropolyethers having the various structures indicated below, inclusive of perfluoropolyethers (trade name: Fomblin Y-06, Y-25 and Y-45, manufactured and sold by Nippon Montedison Co., Ltd., Japan) employed in Examples of Japanese Patent Application Laid-Open Specification Nos. 60-96684 and 1-118598, with a fluoroalkane, such as HFC-134a, HFC-134 and HFC-152a. […] Accordingly, it has been confirmed that such perfluoropolyethers are not suitable as a lubricant for use in refrigeration equipment employing a fluoroalkane, such as HFC-134a, HFC-134 and HFC-152a, as a refrigerant. [drawing 1] wherein each of q1, q2, q3, q4, q5 and q6 is a positive integer.
The miscibilities of commercially available perfluoropolyether and 2,2-bis(4-ethoxyphenyl)propane with each of the above various fluoroalkane were evaluated, in substantially the same manner as in Example 1. The results are shown in Table 3 together with data of the kinetic viscosity at 40 °C.

[13] = mixing ratio [S2]/[S2]+HFC-134a 5 % by weight
[14] = mixing ratio [S2]/[S2]+HFC-134a 10 % by weight
[15] = mixing ratio [S2]/[S2]+HFC-134a 30 % by weight
[16] = mixing ratio [S2]/[S2]+HFC-134a 50 % by weight
[17] = mixing ratio [S2]/[S2]+HFC-134a 80 % by weight

Row | Compound | lower limit temperature to be miscible with HFC-32 [2] | upper limit temperature to be miscible with HFC-32 [2] | After sealed tube test IR [3] | After sealed tube test hue [3] | After sealed tube test metal surface [3] | After sealed tube test viscosity [3] | volume resistivity [5] | Kinetic viscosity (cSt)40°C [6] | kinetic viscosity at 100 °C [6] | Temperature range for being miscible with HFC-134a lower limit temperature (°C) [8] | Temperature range for being miscible with HFC-134a upper limit temperature (°C) [8] | other results
1 | CC(C)(c1ccc(OC(F)(F)C(F)Cl)cc1)c1ccc(OC(F)(F)C(F)Cl)cc1 (centres unmarked) [[S1]] | -56 °C | ≥ 90 °C | not changed at all | not changed | not changed | not changed at all | 3.0 x 10^11 Ωcm | 56.8 cSt | 5.34 cSt | – | – | insulation breakdown voltage [1]: ≥ 50 kV/2.5 cm; miscibility with mineral oil [4]: completely miscible; Volume resistivity (Ωcm) before purification ([5]; oil of Example 40 ([S1]) or Example 44 ([S2]) before adsorbent treatment): 1.0 x 10^11 Ωcm; volume resistivity after purification ([5]; purified with activated carbon (Calgon® CPG)): 2.2 x 10^13 Ωcm
2 | CC(C)(c1ccc(OC(F)(F)C(F)F)cc1)c1ccc(OC(F)(F)C(F)F)cc1 [[S2]] | ≤ -78 °C | 90 °C | not changed | not changed | not changed | not changed | 5.7 x 10^11 Ωcm | 26.2 cSt | 3.40 cSt | – | – | miscibility with polypropylene glycol [7]: completely miscible; Temperature range to be miscible (°C) lower limit temperature [8, 13]: -78 or below °C; Temperature range to be miscible (°C) upper limit temperature [8, 13]: 90 or above °C; Temperature range to be miscible (°C) lower limit temperature [8, 14]: -78 or below °C; Temperature range to be miscible (°C) upper limit temperature [8, 14]: 90 or above °C; Temperature range to be miscible (°C) lower limit temperature [8, 15]: -78 or below °C; Temperature range to be miscible (°C) upper limit temperature [8, 15]: 90 or above °C; Temperature range to be miscible (°C) lower limit temperature [8, 16]: -78 or below °C; Temperature range to be miscible (°C) upper limit temperature [8, 16]: 90 or above °C; Temperature range to be miscible (°C) lower limit temperature [8, 17]: -78 or below °C; Temperature range to be miscible (°C) upper limit temperature [8, 17]: 90 or above °C; lower limit temperature to be miscible with HFC-125 [9]: ≤ -78 °C; upper limit temperature to be miscible with HFC-125 [9]: 90 °C; lower limit temperature to be miscible with HFC-227ea [10]: ≤ -78 °C; upper limit temperature to be miscible with HFC-227ea [10]: 90 °C; miscibility with ester oil [11]: completely miscible
3 | Cc1cc(C(C)(C)c2ccc(OC(F)(F)C(F)F)c(C)c2)ccc1OC(F)(F)C(F)F [[S5]] | – | – | not changed | not changed | not changed | not changed | 2.9 x 10^12 Ωcm | 115 cSt | – | -78 or below °C | 90 or above °C | –
4 | CC(C)(c1ccc(OC(F)F)cc1)c1ccc(OC(F)F)cc1 [[S7]] | – | – | – | – | – | – | – | 4 cSt | – | -78 or below °C | 90 or above °C | –
5 | CC(C)(c1ccc(OC(F)(F)CF)cc1)c1ccc(OC(F)(F)CF)cc1 [[S9]] | – | – | – | – | – | – | – | 50 cSt | – | -78 or below °C | 90 or above °C | –
6 | CCOc1ccc(C(C)(C)c2ccc(OCC)cc2)cc1 [[S14], 2,2-bis(4-ethoxyphenyl)propane] | – | – | – | – | – | – | – | – | – | – | – | miscibility with fluoroalkanes, such as HFC-134a [12]: little miscibility
